{"source": "patent US20190125785A1", "about": "“HYPOTHERMAL INHALATION GAS COMPOSITION” (MONATOMICS TECHNOLOGY, priority 2016, published 2019)", "assay": "rectal body temperature of rats after 3 hours in an enclosure supplied with a 22% oxygen / 78% helium, xenon or argon mixture at different temperatures", "type": "in vivo, rat", "conditions": "comparison of FIGS. 1 and 2", "from_the_text": "The graph of FIG. 1, which represents the experimental body temperature data Tc collected on rats as a function of the inhalation temperature Ti of a helium-oxygen mixture (curve C1) or of a xenon-oxygen mixture (curve C2), makes it possible to determine the proportions of the gas composition to be complied with in order to obtain a hypothermal gas mixture, depending on the inhalation temperature. In a more detailed manner, curves C1 and C2 correspond to regression lines obtained based on said experimental data Pi, several examples of which have been plotted in FIG. 1.\nThe experimental data were obtained as follows: The rats were placed for 3 hours in a closed enclosure supplied with a continuous flow of a gas mixture containing 22% oxygen (O2) and 78% helium, xenon or argon (He, Xe or Ar). This gas mixture was administered at different temperatures. The flow of the gas mixture was 10 mL/min and made it possible to maintain the carbon dioxide (CO2) concentration below 0.03% and the humidity at around 60% to 70%. […] At the end of the 3 hours of exposure, the rectal body temperature of the rats was measured for each administration temperature.\nThe inhalation temperature Ti can be between 16° C. and 27° C., for example.", "data": [{"smiles": "[Ar]", "note": "[Argon (Ar), Argon]", "values": [{"measurement": "hypothermal properties (slope of curve C3 compared with curve C2)", "result": "lower hyperthermal properties than xenon"}]}]}
